Laboratory results reported in patent US11123323B2, “Monoterpenes for treating respiratory disorders, in particular bronchopulmonary disorders” (Maria Clemetine Martin Klosterfrau Vertriebsqesellschaft MBH, priority 2008, dated 2021).

Experiments:
[1] = test system: superoxide dismutases (SOD); test: Superoxide dismutase activity
[2] = test system: patients with persistent bronchial asthma (GINA III); test: Clinical add-on therapy with oral 1,8-cineol, persistent bronchial asthma GINA III, 12 patients; format: in vivo, human
Source text: Even after a one-week therapy at the dose mentioned above, in 9 of the 12 subjects a slight to moderate improvement of lung function was achieved. After continuing therapy for a further twelve weeks, the persistent bronchial asthma had stabilized to such an extent that in 9 of the 12 patients the inhalative glucocorticoid required could be reduced by up to 30%.

[3] = test system: production of IL-8 in ex-vivo stimulated peripheral human monocytes; test: IL-8 production in ex-vivo stimulated peripheral monocytes of former smokers under additional therapy; format: cell-based; conditions: long-term additional therapy with 1,8-cineol plus ICS-based therapy
Method: (§1) From these patients, monocytes were obtained during ongoing therapy with ICS and incubated in vitro with a topical glucocorticoid in a dose-dependent manner.

[4] = test system: NO production in stimulated human monocytes; test: NO production in stimulated human monocytes in vitro (FIG. 3); format: cell-based
[5] = test system: production of TNF-α in ex-vivo stimulated peripheral human monocytes; test: TNF-α production in ex-vivo stimulated peripheral monocytes of former smokers under additional therapy; format: cell-based; conditions: long-term additional therapy with 1,8-cineol plus ICS-based therapy
Method: as §1

[6] = test system: patients with persistent bronchial asthma (GINA II); test: Clinical add-on therapy with oral 1,8-cineol, persistent bronchial asthma GINA II, 10 patients; format: in vivo, human
Method: 10 patients 56 to 72 years of age with persistent bronchial asthma (GINA II) treated with a combination therapy of inhalative glucocorticoid (beclometasone, 2×200 μg/day by inhalation) and inhalative long-acting beta-2-sympathomimetics (LABA, salmeterol) and also oral theophyllin were given 1,8-cineol (Soledum® capsules) 4×200 mg/day orally for one week. Even after a one-week therapy at the dose mentioned above, in 8 of the 10 subjects a slight to moderate improvement of lung function was achieved. After continuing therapy for a further twelve weeks, the persistent bronchial asthma had stabilized to such an extent that in 7 of the 10 patients the inhalative glucocorticoid required could be reduced by up to 60% and in 2 of the 10 patients the inhalative glucocorticoids could be discontinued altogether at times. […] In 5 of the patients treated, the betamimetics required, too, could be reduced by up to 40%.

[7] = test system: superoxide production (O2^− production) of normal human monocytes; test: PMA-stimulated superoxide production (INT-formazan) of normal human monocytes in vitro; format: cell-based; conditions: for INT-Formazan: PMA, 20 hours; for O2^− production: FIG. 3
[8] = test system: IL-1beta production in LPS-stimulated human monocytes; test: LPS-stimulated production of IL-1beta in human monocytes in vitro (ELISA); format: cell-based
Source text: 1,8-Cineol intensifies in particular the action of subtherapeutic concentrations of beclometasone which are relevant for the peripheral respiratory tract.

[9] = test system: smokers with COPD (GOLD II to III); test: Placebo-controlled double-blind study of additional therapy with 1,8-cineol in smokers with COPD; format: in vivo, human
Method: In a placebo-controlled double-blind study, the effect of an additional therapy with 1,8-cineol in the form of capsules which dissolve in the small intestine (Soledum® capsules, 3×200 mg/day, oral) on exacerbation rate and lung function was examined in 3 winter months of two successive years using 242 smokers with COPD (GOLD II to III).

[10] = test system: FCS-stimulated production of superoxides (O2^−) in normal human monocytes; test: FCS-stimulated superoxide production of normal human monocytes in vitro (INT-formazan); format: cell-based; conditions: for INT-Formazan / O2^−: FCS 10%; for INT-Formazan / Comparison to control (%): Table 4 series
Method: As already described, monocytes were isolated from 50 ml of venous blood which was repeatedly donated voluntarily for the experiments by healthy non-smoking subjects (n=4). […] To this end, the active compounds were incubated together with freshly isolated monocytes (10^5/ml) and the FCS stimulus (10%, from Sigma) for 20 hours in a cell culture medium (RPMI-1640, from Sigma). […] The determination of the cytosolic superoxide production is based on the reduction of the dye p-iodonitrotetrazolium violet (INTV), which reacts specifically with superoxide ions, to iodonitrotetrazolium formazan (formazan). INTV is taken up by the cells into the cytosol. Intracellularly, the nitrogen cycle of the INTV is reduced by free superoxide radicals, giving rise to a water-soluble intermediate and the water-insoluble formazan, which have their absorption maxima at 505 and 490 nm, respectively. […] At the end of an experiment, the cell lysate is (after treatment with hydrochloric acid) measured at 492 nm in a photometer. Here, the absorption of light is proportional to the amount of intracellularly accumulated INT-formazan which can then be determined using a formazan calibration curve. The INT-formazan accumulation for its part is determined as a measure for the intracellular production of superoxide.

[11] = 4×200 mg/day orally, after one week, add-on to beclometasone, salmeterol, theophyllin
[12] = therapeutic range of 1,8-cineol
[13] = 1,8-cineol 6 × 10^−6 mol/l (0.9 μg/ml), Table 6 series

superoxide dismutase activity [1]: partially inhibited
SMILES: CC12CCC(CC1)C(C)(C)O2 [1,8-cineol, 1,3,3-trimethyl-2-oxabicyclo-[2.2.2]-octane]
tolerability ([2]; 4×200 mg/day orally): tolerated well, without any side-effects
subjects with a slight to moderate improvement of lung function [2, 11]: 9 of the 12
patients in whom the inhalative glucocorticoid required could be reduced ([2]; after a further twelve weeks): 9 of the 12
reduction of the betamimetics required ([2]; after a further twelve weeks): up to 25%
reduction of the inhalative glucocorticoid required ([2]; after a further twelve weeks): up to 30%
patients in whom the betamimetics required could be reduced ([2]; of 12 patients treated): 4
production of IL-8 compared to normal monocytes of nonsmokers [3]: increased production of IL-8
production of NO ([4]; subtherapeutic concentrations (0.15 μg/ml=10^−6 mol/l)): inhibit the production of NO
production of NO [4, 12]: stimulating effects on the production of NO
production of TNF-α compared to normal monocytes of nonsmokers [5]: inhibition of the production of TNF-α
tolerability ([6]; 4×200 mg/day orally): tolerated well, without any side-effects
patients in whom the inhalative glucocorticoid required could be reduced ([6]; 4×200 mg/day orally, after a further twelve weeks): 7 of the 10
subjects with a slight to moderate improvement of lung function [6, 11]: 8 of the 10
patients in whom the inhalative glucocorticoids could be discontinued altogether at times ([6]; after a further twelve weeks): 2 of the 10
reduction of the betamimetics required ([6]; after a further twelve weeks): up to 40%
reduction of the inhalative glucocorticoid (ICS dose) required ([6]; long-term therapy with oral 1,8-cineol, one plus twelve weeks): up to 60%
patients in whom the betamimetics required could be reduced ([6]; of 10 patients treated): 5
Comparison with control (%) ([7]; 0.0015 μg/ml (10^−8 mol/l)): +27.6 ± 4%
INT-Formazan ([7]; 0.0015 μg/ml (10^−8 mol/l)): 5.364 ± 229 nmol/10^5
Comparison with control (%) ([7]; 0.015 μg/ml (10^−7 mol/l)): +24.5 ± 6%
INT-Formazan ([7]; 0.015 μg/ml (10^−7 mol/l)): 5235 ± 341 nmol/10^5
Comparison with control (%) ([7]; 0.15 μg/ml (10^−6 mol/l)): +26.7 ± 7%
INT-Formazan ([7]; 0.15 μg/ml (10^−6 mol/l)): 5327 ± 360 nmol/10^5
Comparison with control (%) ([7]; 0.3 μg/ml (2 × 10^−6 mol/l)): +31.8 ± 6%
INT-Formazan ([7]; 0.3 μg/ml (2 × 10^−6 mol/l)): 5540 ± 359 nmol/10^5
Comparison with control (%) ([7]; 0.6 μg/ml (4 × 10^−6 mol/l)): +43.8 ± 9%
INT-Formazan ([7]; 0.6 μg/ml (4 × 10^−6 mol/l)): 6045 ± 534 nmol/10^5
Comparison with control (%) ([7]; 0.9 μg/ml (6 × 10^−6 mol/l)): +45.3 ± 7%
INT-Formazan ([7]; 0.9 μg/ml (6 × 10^−6 mol/l)): 6107 ± 437 nmol/10^5
Comparison with control (%) ([7]; 1.2 μg/ml (8 × 10^−6 mol/l)): −2.5 ± 6%
INT-Formazan ([7]; 1.2 μg/ml (8 × 10^−6 mol/l)): 4099 ± 234 nmol/10^5
Comparison with control (%) ([7]; 1.5 μg/ml (10^−5 mol/l)): −42 ± 16%
INT-Formazan ([7]; 1.5 μg/ml (10^−5 mol/l)): 2438 ± 389 nmol/10^5
Comparison with control (%) ([7]; 3 μg/ml (2 × 10^−5 mol/l)): −84.9 ± 22%
INT-Formazan ([7]; 3 μg/ml (2 × 10^−5 mol/l)): 634 ± 139 nmol/10^5
O2^− production ([7]; low concentrations of 1,8-cineol): slightly induce O2^− production
O2^− production [7, 12]: inhibited strongly
production of IL-1beta, change ([8]; 1,8-cineol on its own, 10^−6 mol/l, FIG. 1): −32%
Effect vs. control Inhibition (%) ([8]; cineol 10^−6 mol/l): 32.4±17%
Effect vs. cineol 10^−6 mol/l Inhibition (%) ([8]; cineol 10^−6 mol/l (the reference itself)): 0 ± 17%
IL-1beta ([8]; cineol 10^−6 mol/l, LPS, 20 hours): 3548 ± 600 Pg/5 × 10^4 cells
Effect vs. control Inhibition (%) ([8]; cineol 10^−6 mol/l, listed as cineol): 32.4 ± 17%
LPS-stimulated production of IL1-beta compared to the LPS control ([8]; therapeutically relevant concentrations of 1,8-cineol, FIG. 2, p<0.01): inhibited by therapeutically relevant concentrations of 1,8-cineol in a dose-dependent manner and significantly
St. George's Respiratory Questionnaire (SGRQ), change in the verum group ([9]; 3×200 mg/day, oral): −10.4 units
lung function (FEV1), change in the verum group ([9]; 3×200 mg/day, oral): +5.1%
reduction in the exacerbation rate compared to the placebo group ([9]; 3×200 mg/day, oral, 3 winter months of two successive years, 242 smokers): −38.5%
further reduction of the frequency of exacerbations beyond known combined therapies ([9]; additional therapy with capsules which dissolve in the small intestine): 25%
INT-Formazan ([10]; 0.000015 μg/ml (10^−10 mol/l)): 21360 ± 1766 nmol/10^5
Comparison to control (%) ([10]; 0.000015 μg/ml (10^−10 mol/l)): −0.7 ± 8%
INT-Formazan ([10]; 0.00015 μg/ml (10^−9 mol/l)): 21329 ± 1920 nmol/10^5
Comparison to control (%) ([10]; 0.00015 μg/ml (10^−9 mol/l)): −0.8 ± 9%
INT-Formazan ([10]; 0.0015 μg/ml (10^−8 mol/l)): 21946 ± 1858 nmol/10^5
Comparison to control (%) ([10]; 0.0015 μg/ml (10^−8 mol/l)): 2 ± 8%
INT-Formazan ([10]; 0.015 μg/ml (10^−7 mol/l)): 21899 ± 1879 nmol/10^5
Comparison to control (%) ([10]; 0.015 μg/ml (10^−7 mol/l)): 1.8 ± 8%
INT-Formazan ([10]; 0.15 μg/ml (10^−6 mol/l)): 22286 ± 2036 nmol/10^5
Comparison to control (%) ([10]; 0.15 μg/ml (10^−6 mol/l)): 3.6 ± 9%
INT-Formazan ([10]; 0.3 μg/ml (2 × 10^−6 mol/l)): 21499 ± 1959 nmol/10^5
Comparison to control (%) ([10]; 0.3 μg/ml (2 × 10^−6 mol/l)): 0.04 ± 9%
INT-Formazan ([10]; 0.6 μg/ml (4 × 10^−6 mol/l)): 17240 ± 1637 nmol/10^5
Comparison to control (%) ([10]; 0.6 μg/ml (4 × 10^−6 mol/l)): −19.8 ± 9%
INT-Formazan ([10]; 0.9 μg/ml (6 × 10^−6 mol/l)): 12341 ± 1061 nmol/10^5
Comparison to control (%) ([10]; 0.9 μg/ml (6 × 10^−6 mol/l)): −42.6±8%
Comparison to control (%) ([10]; 0.9 μg/ml (6 × 10^−6 mol/l), listed as 1,8-Cineol): −42.6 ± 8%
INT-Formazan ([10]; 1.2 μg/ml (8 × 10^−6 mol/l)): 10086 ± 701 nmol/10^5
Comparison to control (%) ([10]; 1.2 μg/ml (8 × 10^−6 mol/l)): −53.1 ± 7%
INT-Formazan ([10]; 1.5 μg/ml (10^−5 mol/l)): 10202 ± 915 nmol/10^5
Comparison to control (%) ([10]; 1.5 μg/ml (10^−5 mol/l)): −52.6 ± 9%
O2^− ([10]; 1,8-cineol 4 × 10^−6 mol/l (0.6 μg/ml), Table 5 series): 16323 ± 1069 nmol/mL
O2^− [10, 13]: 9347 ± 494 nmol/mL
Percent of control [10, 13]: −50.2±5%
lowest antioxidatively active concentration ([10]; FCS-stimulated O2^− production): 6e-06 mol/L
inhibition of the production of O2^− radicals ([10]; therapeutically relevant concentrations of 1,8-cineol, summary): about 50%
